Experimental data reported in patent publication US9637472B2, “Substituted 6,5-fused bicyclic heteroaryl compounds” (Epizyme, Inc., priority 2011, dated 2017).

Each molecule was assayed against EZH2 (Homo sapiens (Human), UniProt Q15910) (assay: PRC2 enzyme assay on peptide substrates). Settings: PRC2 enzyme assays on peptide substrates; 4 nM enzyme, 30 min preincubation at 25° C.; read-out: EZH2 IC50.
Type: biochemical

Chain of EZH2 (Q15910 other isoform, or with tags, fused parts or gaps): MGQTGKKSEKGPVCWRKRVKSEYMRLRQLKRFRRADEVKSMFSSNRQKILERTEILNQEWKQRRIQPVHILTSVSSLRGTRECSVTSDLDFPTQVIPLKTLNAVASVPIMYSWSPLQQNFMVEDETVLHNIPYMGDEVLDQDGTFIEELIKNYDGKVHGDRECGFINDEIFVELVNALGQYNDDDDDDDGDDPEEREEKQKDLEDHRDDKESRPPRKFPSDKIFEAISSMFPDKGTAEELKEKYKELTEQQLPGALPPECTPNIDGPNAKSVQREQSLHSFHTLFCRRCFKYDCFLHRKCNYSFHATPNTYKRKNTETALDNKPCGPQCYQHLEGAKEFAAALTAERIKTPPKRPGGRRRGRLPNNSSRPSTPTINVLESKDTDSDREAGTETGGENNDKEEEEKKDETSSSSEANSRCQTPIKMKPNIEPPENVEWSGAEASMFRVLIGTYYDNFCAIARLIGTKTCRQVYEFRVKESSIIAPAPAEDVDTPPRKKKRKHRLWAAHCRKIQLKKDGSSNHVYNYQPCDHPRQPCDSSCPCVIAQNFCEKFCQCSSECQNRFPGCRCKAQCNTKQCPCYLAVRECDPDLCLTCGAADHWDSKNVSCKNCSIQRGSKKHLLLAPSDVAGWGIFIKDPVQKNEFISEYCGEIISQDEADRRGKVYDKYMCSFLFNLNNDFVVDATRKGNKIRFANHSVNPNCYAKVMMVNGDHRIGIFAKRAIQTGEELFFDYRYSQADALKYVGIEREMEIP
Chain of EZH2 (O75530 whole entry partner): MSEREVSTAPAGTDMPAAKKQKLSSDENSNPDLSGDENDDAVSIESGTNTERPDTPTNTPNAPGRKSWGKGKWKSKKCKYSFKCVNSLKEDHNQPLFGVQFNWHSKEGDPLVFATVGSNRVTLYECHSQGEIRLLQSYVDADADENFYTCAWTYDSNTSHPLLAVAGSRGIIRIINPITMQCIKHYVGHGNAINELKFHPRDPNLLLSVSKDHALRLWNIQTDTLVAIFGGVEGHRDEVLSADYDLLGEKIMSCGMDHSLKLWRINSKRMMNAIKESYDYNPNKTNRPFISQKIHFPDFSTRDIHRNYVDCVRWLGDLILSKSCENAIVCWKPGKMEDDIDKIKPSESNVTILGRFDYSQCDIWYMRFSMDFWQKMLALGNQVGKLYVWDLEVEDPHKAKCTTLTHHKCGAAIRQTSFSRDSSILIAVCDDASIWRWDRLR
Chain of EZH2 (Q15022 whole entry partner): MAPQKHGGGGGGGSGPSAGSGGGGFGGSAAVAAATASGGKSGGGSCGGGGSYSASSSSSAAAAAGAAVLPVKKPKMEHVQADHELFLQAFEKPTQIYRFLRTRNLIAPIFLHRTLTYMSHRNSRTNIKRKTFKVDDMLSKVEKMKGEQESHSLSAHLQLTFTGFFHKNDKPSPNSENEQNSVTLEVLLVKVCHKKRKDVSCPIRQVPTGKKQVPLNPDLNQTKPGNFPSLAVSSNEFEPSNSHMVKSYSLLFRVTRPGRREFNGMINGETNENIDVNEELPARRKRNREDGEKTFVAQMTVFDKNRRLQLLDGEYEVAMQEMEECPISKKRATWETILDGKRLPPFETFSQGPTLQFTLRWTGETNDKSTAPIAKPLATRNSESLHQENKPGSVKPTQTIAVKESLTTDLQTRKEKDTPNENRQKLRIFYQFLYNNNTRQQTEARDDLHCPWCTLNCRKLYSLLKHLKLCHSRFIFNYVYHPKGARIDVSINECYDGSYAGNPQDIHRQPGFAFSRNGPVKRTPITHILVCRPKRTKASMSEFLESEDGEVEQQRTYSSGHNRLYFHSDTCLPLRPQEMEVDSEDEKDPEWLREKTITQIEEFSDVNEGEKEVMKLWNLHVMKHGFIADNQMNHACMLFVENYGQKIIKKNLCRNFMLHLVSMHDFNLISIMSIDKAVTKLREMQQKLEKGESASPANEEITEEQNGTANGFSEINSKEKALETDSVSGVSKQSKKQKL
Chain of EZH2 (Q09028 whole entry partner): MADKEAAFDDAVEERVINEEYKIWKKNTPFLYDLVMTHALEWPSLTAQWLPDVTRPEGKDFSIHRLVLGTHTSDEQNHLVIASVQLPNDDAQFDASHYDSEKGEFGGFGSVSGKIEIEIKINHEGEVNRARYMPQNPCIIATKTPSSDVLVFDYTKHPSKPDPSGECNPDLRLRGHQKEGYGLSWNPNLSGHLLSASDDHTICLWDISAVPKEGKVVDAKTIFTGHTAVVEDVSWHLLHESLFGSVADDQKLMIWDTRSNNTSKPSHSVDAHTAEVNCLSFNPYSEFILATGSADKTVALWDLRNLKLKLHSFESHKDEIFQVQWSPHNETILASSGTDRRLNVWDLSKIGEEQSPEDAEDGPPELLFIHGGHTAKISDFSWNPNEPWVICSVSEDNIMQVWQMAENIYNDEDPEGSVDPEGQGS

Compound | IC50 [nM]
Cc1cc(C)c(CNC(=O)c2cc(-c3ccc(CN4CCOCC4)c(Cl)c3)cc3c2cnn3C2CCCC2)c(=O)[nH]1 [Compound C-28] | < 300
Cc1cc(C)c(CNC(=O)c2cc(-c3cccc(CN(C)CCO)c3)cc3c2cnn3C2CCCC2)c(=O)[nH]1 [Compound C-29] | < 300
Cc1cc(C)c(CNC(=O)c2cc(-c3cnc(N)nc3)cc3c2cnn3C2CCCC2)c(=O)[nH]1 [Compound C-30] | < 300
Cc1cc(C)c(CNC(=O)c2cc(-c3ccc(CN(C)C)cc3)cc3c2cnn3C2CCN(C(=O)C(C)(C)C)CC2)c(=O)[nH]1 [Compound C-31] | < 300
Cc1cc(C)c(CNC(=O)c2cc(-c3ccc(CN4CCOCC4)cc3Cl)cc3c2cnn3C2CCCC2)c(=O)[nH]1 [Compound C-32] | < 300
Cc1cc(C)c(CNC(=O)c2cc(-c3cnn(CCN4CCOCC4)c3)cc3c2cnn3C2CCCC2)c(=O)[nH]1 [Compound C-33] | < 300
Cc1cc(C)c(CNC(=O)c2cc(-c3cnn(CCN4CCOCC4)c3)cc3c2cnn3C2CCN(C(=O)C(C)(C)C)CC2)c(=O)[nH]1 [Compound C-34] | < 300
Cc1cc(C)c(CNC(=O)c2cc(-c3ccc(OCCCN(C)C)cc3)cc3c2cnn3C2CCCC2)c(=O)[nH]1 [Compound C-35] | < 300
Cc1cc(C)c(CNC(=O)c2cc(C3=CC(C)(C)NC(C)(C)C3)cc3c2cnn3C2CCCC2)c(=O)[nH]1 [Compound D-2, 1-cyclopentyl-N-((4,6-dimethyl-2-oxo-1,2-dihydropyridin-3-yl)methyl)-6-(2,2,6,6-tetramethyl-1,2,3,6-tetrahydropyridin-4-yl)-1H-indazole-4-carboxamide] | < 300
Cc1cc(C)c(CNC(=O)c2cc(C3CC(C)(C)NC(C)(C)C3)cc3c2cnn3C2CCCC2)c(=O)[nH]1 [Compound D-3, 1-cyclopentyl-N-((4,6-dimethyl-2-oxo-1,2-dihydropyridin-3-yl)methyl)-6-(2,2,6,6-tetramethylpiperidin-4-yl)-1H-indazole-4-carboxamide] | < 300
CC(=O)N1CC=C(c2cc(C(=O)NCc3c(C)cc(C)[nH]c3=O)c3cnn(C4CCCC4)c3c2)CC1 [Compound D-4, 6-(1-acetyl-1,2,3,6-tetrahydropyridin-4-yl)-1-cyclopentyl-N-((4,6-dimethyl-2-oxo-1,2-dihydropyridin-3-yl)methyl)-1H-indazole-4-carboxamide] | < 300
Cc1cc(C)c(CNC(=O)c2cc(C3=CCN(C(=O)C4CCN(C)CC4)CC3)cc3c2cnn3C2CCCC2)c(=O)[nH]1 [Compound D-5, 1-cyclopentyl-N-((4,6-dimethyl-2-oxo-1,2-dihydropyridin-3-yl)methyl)-6-(1-(1-methylpiperidine-4-carbonyl)-1,2,3,6-tetrahydropyridin-4-yl)-1H-indazole-4-carboxamide] | < 300
Cc1cc(C)c(CNC(=O)c2cc(CN3CCN(C)CC3)cc3c2cnn3C2CCCC2)c(=O)[nH]1 [Compound D-7] | < 300
Cc1cc(C)c(CNC(=O)c2cc(CO)cc3c2cnn3C2CCCC2)c(=O)[nH]1 [Compound D-8, 1-cyclopentyl-N-((4,6-dimethyl-2-oxo-1,2-dihydropyridin-3-yl)methyl)-6-(hydroxymethyl)-1H-indazole-4-carboxamide] | 300 to 1000
Cc1cc(C)c(CNC(=O)c2cc(Cl)cc3c2cnn3C2CCCC2)c(=O)[nH]1 [Compound D-10, 6-chloro-1-cyclopentyl-N-((4,6-dimethyl-2-oxo-1,2-dihydropyridin-3-yl)methyl)-1H-indazole-4-carboxamide] | < 300
Cc1cc(C)c(CNC(=O)c2cc(C(F)(F)F)cc3c2cnn3C2CCCC2)c(=O)[nH]1 [Compound D-11, 1-cyclopentyl-N-((4,6-dimethyl-2-oxo-1,2-dihydropyridin-3-yl)methyl)-6-(trifluoromethyl)-1H-indazole-4-carboxamide] | 300 to 1000
Cc1cc(C)c(CNC(=O)c2cc(Br)cc3c2cnn3C2CCN(C(=O)OC(C)(C)C)CC2)c(=O)[nH]1 [Compound D-12, tert-butyl 4-(6-bromo-4-(((4,6-dimethyl-2-oxo-1,2-dihydropyridin-3-yl)methyl)carbamoyl)-1H-indazol-1-yl)piperidine-1-carboxylate] | < 300
Cc1cc(C)c(CNC(=O)c2cc(Br)cc3c2cnn3C2CCN(C(=O)C(C)(C)C)CC2)c(=O)[nH]1 [Compound D-13] | < 300
Cc1cc(C)c(CNC(=O)c2cc(Br)cc3c2cnn3C2CCN(C(=O)C3CNC3)CC2)c(=O)[nH]1 [Compound D-14, 1-(1-(azetidine-3-carbonyl)piperidin-4-yl)-6-bromo-N-((4,6-dimethyl-2-oxo-1,2-dihydropyridin-3-yl)methyl)-1H-indazole-4-carboxamide] | < 300
Cc1cc(C)c(CNC(=O)c2cc(Br)cc3c2cnn3C2CCN(Cc3ccccc3)CC2)c(=O)[nH]1 [Compound D-15, 1-(1-benzylpiperidin-4-yl)-6-bromo-N-((4,6-dimethyl-2-oxo-1,2-dihydropyridin-3-yl)methyl)-1H-indazole-4-carboxamide] | 300 to 1000
Cc1cc(C)c(CNC(=O)c2cc(Br)cc3c2cnn3C2CCN(C3CCN(C)CC3)CC2)c(=O)[nH]1 [Compound D-16, 6-bromo-N-((4,6-dimethyl-2-oxo-1,2-dihydropyridin-3-yl)methyl)-1-(1′-methyl-[1,4′-bipiperidin]-4-yl)-1H-indazole-4-carboxamide] | < 300
Cc1cc(CN(C)C)c(CNC(=O)c2cc(Br)cc3c2cnn3C2CCCC2)c(=O)[nH]1 [Compound D-17, 6-bromo-1-cyclopentyl-N-((4-((dimethylamino)methyl)-6-methyl-2-oxo-1,2-dihydropyridin-3-yl)methyl)-1H-indazole-4-carboxamide] | < 300
Cc1cc(C)c(CNC(=O)c2cc(C(C)C)cc3c2cnn3C2CCCC2)c(=O)[nH]1 [Compound D-20, 1-cyclopentyl-N-((4,6-dimethyl-2-oxo-1,2-dihydropyridin-3-yl)methyl)-6-isopropyl-1H-indazole-4-carboxamide] | 300 to 1000
Cc1cc(CN2CCC[C@@H]2C(N)=O)c(CNC(=O)c2cc(Br)cc3c2cnn3C2CCCC2)c(=O)[nH]1 [Compound D-22] | 1000 to 3000
Cc1cc(C)c(CNC(=O)c2cc(C(F)(F)F)cc3c2cnn3C2CCN(C(=O)C(C)(C)C)CC2)c(=O)[nH]1 [Compound D-23] | < 300
Cc1cc(C)c(CNC(=O)c2cc(Cl)cc3c2cnn3C2CCN(C(=O)C(C)(C)C)CC2)c(=O)[nH]1 [Compound D-24] | < 300

Compound | IC50 [nM]
Cc1cc(C)c(CNC(=O)c2cc(C3=CC(C)(C)NC(C)(C)C3)cc3c2cnn3C2CCN(C(=O)C(C)(C)C)CC2)c(=O)[nH]1 [Compound D-25] | < 300
Cc1cc(C)c(CNC(=O)c2cc(Br)cc3c2cnn3C2CCN(C(=O)C3CCCC3)CC2)c(=O)[nH]1 [Compound D-26] | 300 to 1000
Cc1cc(C)c(CNC(=O)c2cc(Br)cc3c2cnn3C2CCN(C(=O)C3CCCCC3)CC2)c(=O)[nH]1 [Compound D-27] | 300 to 1000
Cc1cc(C)c(CNC(=O)c2cc(Br)cc3c2cnn3C2CCN(C(=O)C3CCOCC3)CC2)c(=O)[nH]1 [Compound D-28] | 300 to 1000
Cc1cc(C)c(CNC(=O)c2cc(Br)cc3c2cnn3C2CCN(C(=O)CN(C)C)CC2)c(=O)[nH]1 [Compound D-29] | 300 to 1000
Cc1cc(C)c(CNC(=O)c2cc(C3CCN(CCCN(C)C)CC3)cc3c2cnn3C2CCCC2)c(=O)[nH]1 [Compound D-30] | < 300
Cc1cc(C)c(CNC(=O)c2cc(Br)cc3c2cnn3C2CCN(C(=O)OC(C)(C)C)C2)c(=O)[nH]1 [Compound D-32] | 300 to 1000
Cc1cc(C)c(CNC(=O)c2cc(Br)cc3c2cnn3C2CCN(C(=O)C(C)(C)C)C2)c(=O)[nH]1 [Compound D-33] | < 300
Cc1cc(C)c(CNC(=O)c2cc(Br)cc3c2cnn3C2CN(C(=O)OC(C)(C)C)C2)c(=O)[nH]1 [Compound D-34] | 1000 to 3000
CC(=O)N1CC(n2ncc3c(C(=O)NCc4c(C)cc(C)[nH]c4=O)cc(Br)cc32)C1 [Compound D-35] | 1000 to 3000
Cc1cc(C)c(CNC(=O)c2cc(Br)cc3c2cnn3C2CN(C(=O)C(C)(C)C)C2)c(=O)[nH]1 [Compound D-36] | 1000 to 3000
Cc1cc(C)c(CNC(=O)c2cc(C3=CCN(C(=O)C4CNC4)CC3)cc3c2cnn3C2CCCC2)c(=O)[nH]1 [Compound D-37] | < 300
Cc1cc(C)c(CNC(=O)c2cc(C3=CCN(C(=O)CN(C)C)CC3)cc3c2cnn3C2CCCC2)c(=O)[nH]1 [Compound D-38] | < 300
Cc1cc(C)c(CNC(=O)c2cc(C3=CCN(C(=O)C4CCNCC4)CC3)cc3c2cnn3C2CCCC2)c(=O)[nH]1 [Compound D-39] | < 300
Cc1cc(C)c(CNC(=O)c2cc(C3=CCNCC3)cc3c2cnn3C2CCCC2)c(=O)[nH]1 [Compound D-41] | < 300
Cc1cc(C)c(CNC(=O)c2cc(Br)cc3c2cnn3C2CCN(C(=O)C(C)C)CC2)c(=O)[nH]1 [Compound D-42] | < 300
Cc1cc(C)c(CNC(=O)c2cc(C=O)cc3c2cnn3C2CCCC2)c(=O)[nH]1 [Compound D-43] | < 300
CNCC(=O)N1CC=C(c2cc(C(=O)NCc3c(C)cc(C)[nH]c3=O)c3cnn(C4CCCC4)c3c2)CC1 [Compound D-45] | < 300
Cc1cc(C)c(CNC(=O)c2cc(C3CCN(CCN(C)C)CC3)cc3c2cnn3C2CCCC2)c(=O)[nH]1 [Compound D-46] | < 300
Cc1cc(C)c(CNC(=O)c2cc(C3=CCN(C(=O)CN)CC3)cc3c2cnn3C2CCCC2)c(=O)[nH]1 [Compound D-47] | < 300
CNCCN1CC=C(c2cc(C(=O)NCc3c(C)cc(C)[nH]c3=O)c3cnn(C4CCCC4)c3c2)CC1 [Compound D-48] | < 300
Cc1cc(C)c(CNC(=O)c2cc(C3=CCN(CCN)CC3)cc3c2cnn3C2CCCC2)c(=O)[nH]1 [Compound D-49] | < 300
Cc1cc(C)c(CNC(=O)c2cc(C3=CCN(C(=O)C4CN(C)C4)CC3)cc3c2cnn3C2CCCC2)c(=O)[nH]1 [Compound D-50] | < 300
CNCCN1CCC(c2cc(C(=O)NCc3c(C)cc(C)[nH]c3=O)c3cnn(C4CCCC4)c3c2)CC1 [Compound D-51] | < 300
Cc1cc(C)c(CNC(=O)c2cc(Br)cc3c2cnn3C2CCN(C(=O)C3CCNCC3)CC2)c(=O)[nH]1 [Compound D-52] | < 300
